{"source": "patent US20240279220A1", "about": "“INDOLE COMPOUNDS AND METHODS OF USE” (Genzyme Corporation, priority 2021, published 2024)", "data": [{"system": "NBD1/3D", "assay": "Aggregation analysis using differential static light scattering (DSLS), NBD1 thermal stability", "assay_type": "binding, Human", "conditions": "ΔTagg versus DMSO control; compound at 100 μM", "how_it_was_run": "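Thermal stabilisation reported as ΔTagg, i.e. aggregation temperature relative to averaged DMSO wells. Tagg came from the inflection of differential static light scattering imaged 25–70 °C while NBD1 (0.2 mg/ml, Tris pH 7.6 buffer containing ATP, MgCl2, DTT, glycerol) was ramped 1 °C/min.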", "values": [{"compound": "CP(C)(=O)c1c(Oc2cccc(-c3nc(Cc4cccc(CCC(=O)O)c4)cs3)c2)c(F)cc2[nH]ccc12", "note": "[Example 92, 3-(3-((2-(3-((4-(Dimethylphosphoryl)-6-fluoro-1H-indol-5-yl)oxy)phenyl)thiazol-4-__yl)methy)phenyl)propanoic acid]", "DSLS NBD1/3D Human Stability delta-T (° C.) @ 100 (μM)": "B (B: 5-10° C.)"}, {"compound": "Cc1c(Oc2cccc(-c3ncc(C(C)(O)c4cccc(CCC(=O)O)c4)[nH]3)c2)c(F)cc2[nH]ccc12", "note": "(stereo not drawn) [Example 185, 3-(3-(1-(2-(3-((6-fluoro-4-methyl-1H-indol-5-yl)oxy)phenyl)-1H-imidazol-5-yl)-1-hydroxyethyl)phenyl) propanoic acid]", "DSLS NBD1/3D Human Stability delta-T (° C.) @ 100 (μM)": "A (A: T ≥ 10° C.)"}, {"compound": "CC(C)(c1c[nH]c(-c2cc(Oc3c(F)cc4[nH]ccc4c3Cl)ccc2F)n1)c1cccc(CCC(=O)O)c1F", "note": "[Example 164, 3-(3-(2-(2-(5-((4-chloro-6-fluoro-1H-indol-5-yl)oxy)-2-fluorophenyl)-1H-imidazol-4-yl)propan-2-yl)-2-fluorophenyl)propanoic acid]", "DSLS NBD1/3D Human Stability delta-T (° C.) @ 100 (μM)": "B (B: 5-10° C.)"}, {"compound": "CC(O)(c1cccc(CCC(=O)O)c1)c1cnc(-c2cccc(Oc3c(F)cc4[nH]ccc4c3S(=O)(=O)CC(F)F)c2)[nH]1", "note": "(stereo not drawn) [Example 28, 3-(3-(1-(2-(3-((4-((2,2-difluoroethyl)sulfonyl)-6-fluoro-1H-indol-5-yl)oxy)phenyl)-1H-imidazol-5-yl)-1-hydroxyethyl)phenyl)propanoic acid]", "DSLS NBD1/3D Human Stability delta-T (° C.) @ 100 (μM)": "A (A: T ≥ 10° C.)"}, {"compound": "CC(c1cnc(-c2cc(Oc3c(F)cc4[nH]ccc4c3F)ccc2F)[nH]1)c1cccc(CC(=O)O)c1F", "note": "(single isomer, unassigned) [Example 131B, 2-(3-(1-(2-(5-((4,6-difluoro-1H-indol-5-yl)oxy)-2-fluorophenyl)-1H-imidazol-5-yl)ethyl)-2-fluorophenyl)acetic acid]", "DSLS NBD1/3D Human Stability delta-T (° C.) @ 100 (μM)": "B (B: 5-10° C.)"}, {"compound": "Cc1c(Oc2ccc(F)c(-c3ccn(Cc4cnc(CCC(=O)O)s4)n3)c2)c(F)cc2[nH]ccc12", "note": "[Example 18, 3-(5-((3-(2-Fluoro-5-((6-fluoro-4-methyl-1H-indol-5-yl)oxy)phenyl)-1H-pyrazol-1-yl)methyl)thiazol-2-yl)propanoic acid]", "DSLS NBD1/3D Human Stability delta-T (° C.) @ 100 (μM)": "C (C: ≤5° C.)"}, {"compound": "Cc1c(Oc2cccc(-c3ccn(C(C)c4cccc(CCC(=O)O)c4)n3)c2)ccc2[nH]ccc12", "note": "(stereo not drawn) [Example 2, 3-(3-(1-(3-(3-((4-methyl-1H-indol-5-yl)oxy)phenyl)-1H-pyrazol-1-yl)ethyl)phenyl)propanoic acid]", "DSLS NBD1/3D Human Stability delta-T (° C.) @ 100 (μM)": "B (B: 5-10° C.)"}, {"compound": "CC(O)(c1cccc(CCC(=O)O)c1)c1cnc(-c2cc(Oc3c(F)cc4[nH]ccc4c3S(C)(=O)=O)ccc2F)[nH]1", "note": "(stereo not drawn) [Example 26, 3-(3-(1-(2-(2-Fluoro-5-((6-fluoro-4-(methylsulfonyl)-1H-indol-5-yl)oxy)phenyl)-1H-imidazol-5-yl)-1-hydroxyethyl)phenyl)propanoic acid]", "DSLS NBD1/3D Human Stability delta-T (° C.) @ 100 (μM)": "A (A: T ≥ 10° C.)"}, {"compound": "O=C(O)CCCCC#Cc1ccc(Cc2nnc(-c3cccc(Oc4ccc5[nH]ccc5c4)c3)[nH]2)cc1", "note": "[Example 253, 7-(4-((5-(3-((1H-Indol-5-yl)oxy)phenyl)-4H-1,2,4-triazol-3-yl)methyl)phenyl)hept-6-ynoic acid]", "DSLS NBD1/3D Human Stability delta-T (° C.) @ 100 (μM)": "C (C: ≤5° C.)"}, {"compound": "O=C(O)CCc1cccc(Cc2cnc(-c3cc(Oc4ccc5[nH]ccc5c4C(F)(F)F)ccc3F)[nH]2)c1", "note": "[Example 104, 3-(3-((2-(2-fluoro-5-((4-(trifluoromethyl)-1H-indol-5-yl)oxy)phenyl)-1H-imidazol-5-yl)methyl)phenyl)propanoic acid]", "DSLS NBD1/3D Human Stability delta-T (° C.) @ 100 (μM)": "B (B: 5-10° C.)"}, {"compound": "COC(=O)C(F)Cc1cccc(C(O)c2cnc(-c3cccc(Oc4ccc5[nH]ccc5c4C)c3)[nH]2)c1", "note": "(stereo not drawn) [Example 173, Methyl 2-fluoro-3-(3-(hydroxy(2-(3-((4-methyl-1H-indol-5-yl)oxy)phenyl)-1H-imidazol-5-yl)methyl)phenyl)propanoate]", "DSLS NBD1/3D Human Stability delta-T (° C.) @ 100 (μM)": "B (B: 5-10° C.)"}, {"compound": "Cc1c(Oc2cnc(F)c(-c3ncc(C(C)(O)c4cccc(CCC(=O)O)c4)[nH]3)c2)c(F)cc2[nH]ccc12", "note": "(stereo not drawn) [Example 207, 3-(3-(1-(2-(2-fluoro-5-((6-fluoro-4-methyl-1H-indol-5-yl)oxy)pyridin-3-yl)-1H-imidazol-5-yl)-1-hydroxyethyl)phenyl) propanoic acid]", "DSLS NBD1/3D Human Stability delta-T (° C.) @ 100 (μM)": "B (B: 5-10° C.)"}, {"compound": "CC(C#N)(c1cccc(CCC(=O)O)c1)c1c[nH]c(-c2cc(Oc3c(F)cc4[nH]ccc4c3F)ccc2F)n1", "note": "(stereo not drawn) [Example 58, 3-(3-(1-cyano-1-(2-(5-((4,6-difluoro-1H-indol-5-yl)oxy)-2-fluorophenyl)-1H-imidazol-4-yl)ethyl)phenyl)propanoic acid]", "DSLS NBD1/3D Human Stability delta-T (° C.) @ 100 (μM)": "B (B: 5-10° C.)"}, {"compound": "Cc1c(Oc2ccc(F)c(-c3nc(C4(c5cccc(CCC(=O)O)c5)OCCCO4)c[nH]3)c2)c(F)cc2[nH]ccc12", "note": "[Example 231, 3-(3-(2-(2-(2-fluoro-5-((6-fluoro-4-methyl-1H-indol-5-yl)oxy)phenyl)-1H-imidazol-4-yl)-1,3-dioxan-2-yl)phenyl)propanoic acid]", "DSLS NBD1/3D Human Stability delta-T (° C.) @ 100 (μM)": "A (A: T ≥ 10° C.)"}, {"compound": "Cc1c(Oc2ccc(F)c(-c3ncc(Cc4cccc(CCC(=O)O)n4)[nH]3)c2)c(F)cc2[nH]ccc12", "note": "[Example 90, 3-(6-((2-(2-fluoro-5-((6-fluoro-4-methyl-1H-indol-5-yl)oxy)phenyl)-1H-imidazol-5-yl)methyl)pyridin-2-yl)propanoic acid]", "DSLS NBD1/3D Human Stability delta-T (° C.) @ 100 (μM)": "B (B: 5-10° C.)"}, {"compound": "CC(O)(c1cccc(CCC(=O)O)c1)c1cnc(-c2cc(Oc3c(F)cc4[nH]ccc4c3F)ccc2F)[nH]1", "note": "(stereo not drawn) [Example 187, 3-(3-(1-(2-(5-((4,6-difluoro-1H-indol-5-yl)oxy)-2-fluorophenyl)-1H-imidazol-5-yl)-1-hydroxyethyl)phenyl) propanoic acid]", "DSLS NBD1/3D Human Stability delta-T (° C.) @ 100 (μM)": "A (A: T ≥ 10° C.)"}, {"compound": "C[C@@H](O)C(=O)N1Cc2ccc(C(C)(O)c3cnc(-c4cccc(Oc5c(F)cc6[nH]ccc6c5F)c4)[nH]3)cc2C1", "note": "(stereo partly drawn) [Example 219, (2R)-1-(5-(1-(2-(3-((4,6-Difluoro-1H-indol-5-yl)oxy)phenyl)-1H-imidazol-5-yl)-1-hydroxyethyl)isoindolin-2-yl)-2-hydroxypropan-1-one]", "DSLS NBD1/3D Human Stability delta-T (° C.) @ 100 (μM)": "C (C: ≤5° C.)"}, {"compound": "CC1(C)COC(c2cccc(CCC(=O)O)c2)(c2cnc(-c3cc(Oc4c(F)c(F)c5[nH]ccc5c4F)ccc3F)[nH]2)OC1", "note": "[Example 227, 3-(3-(2-(2-(2-Fluoro-5-((4,6,7-trifluoro-1H-indol-5-yl)oxy)phenyl)-1H-imidazol-5-yl)-5,5-dimethyl-1,3-dioxan-2-yl)phenyl)propanoic acid]", "DSLS NBD1/3D Human Stability delta-T (° C.) @ 100 (μM)": "A (A: T ≥ 10° C.)"}, {"compound": "Cc1c(Oc2ccc(F)c(-c3ncc(Cc4cccc(CC(=O)O)n4)[nH]3)c2)c(F)cc2[nH]ccc12", "note": "[Example 91, 2-(6-((2-(2-fluoro-5-((6-fluoro-4-methyl-1H-indol-5-yl)oxy)phenyl)-1H-imidazol-5-yl)methyl)pyridin-2-yl)acetic acid]", "DSLS NBD1/3D Human Stability delta-T (° C.) @ 100 (μM)": "B (B: 5-10° C.)"}, {"compound": "CCS(=O)(=O)c1c(Oc2ccc(F)c(-c3ncc(C(C)(O)c4cccc(CCC(=O)O)c4)[nH]3)c2)c(F)cc2[nH]ccc12", "note": "(stereo not drawn) [Example 27, 3-(3-(1-(2-(5-((4-(ethylsulfonyl)-6-fluoro-1H-indol-5-yl)oxy)-2-fluorophenyl)-1H-imidazol-5-yl)-1-hydroxyethyl)phenyl)propanoic acid]", "DSLS NBD1/3D Human Stability delta-T (° C.) @ 100 (μM)": "B (B: 5-10° C.)"}, {"compound": "CS(=O)(=O)c1c(Oc2ccc(F)c(-c3nc(C4(c5cccc(CCC(=O)O)c5)CC(F)(F)C4)cs3)c2)c(F)cc2[nH]ccc12", "note": "[Example 79, 3-(3-(3,3-Difluoro-1-(2-(2-fluoro-5-((6-fluoro-4-(methylsulfonyl)-1H-indol-5-yl)oxy)phenyl)thiazol-4-yl)cyclobutyl)phenyl)propanoic acid]", "DSLS NBD1/3D Human Stability delta-T (° C.) @ 100 (μM)": "B (B: 5-10° C.)"}, {"compound": "CS(=O)(=O)c1c(Oc2ccc(F)c(-c3nc(C4(c5cccc(CCC(=O)O)c5)CCCC4)c[nH]3)c2)c(F)cc2[nH]ccc12", "note": "[Example 47, 3-(3-(1-(2-(2-fluoro-5-((6-fluoro-4-(methylsulfonyl)-1H-indol-5-yl)oxy)phenyl)-1H-imidazol-5-yl)cyclopentyl)phenyl)propanoic acid]", "DSLS NBD1/3D Human Stability delta-T (° C.) @ 100 (μM)": "A (A: T ≥ 10° C.)"}, {"compound": "CNC(=O)c1c(Oc2cccc(-c3ccn(Cc4cccc(/C=C/C(=O)O)c4)n3)c2)ccc2[nH]ccc12", "note": "[Example 15, (E)-3-(3-((3-(3-((4-(Methylcarbamoyl)-1H-indol-5-yl)oxy)phenyl)-1H-pyrazol-1-yl)methyl)phenyl)acrylic acid]", "DSLS NBD1/3D Human Stability delta-T (° C.) @ 100 (μM)": "B (B: 5-10° C.)"}, {"compound": "O=C(O)CSc1cccc(Cc2nnc(-c3cccc(Oc4c(F)cc5[nH]ccc5c4F)c3)[nH]2)c1", "note": "[Example 261, 2-((3-((5-(3-((4,6-Difluoro-1H-indol-5-yl)oxy)phenyl)-4H-1,2,4-triazol-3-yl)methyl)phenyl)thio)acetic acid]", "DSLS NBD1/3D Human Stability delta-T (° C.) @ 100 (μM)": "C (C: ≤5° C.)"}, {"compound": "Cc1c(Oc2cccc(-c3ncc(C(C)(O)c4cccc(CCS(C)(=O)=O)c4)[nH]3)c2)c(F)cc2[nH]ccc12", "note": "(stereo not drawn) [Example 208, 1-(2-(3-((6-fluoro-4-methyl-1H-indol-5-yl)oxy)phenyl)-1H-imidazol-5-yl)-1-(3-(2-(methylsulfonyl)ethyl)phenyl)ethan-1-ol]", "DSLS NBD1/3D Human Stability delta-T (° C.) @ 100 (μM)": "C (C: ≤5° C.)"}, {"compound": "Cc1nc(-c2cc(Oc3c(F)cc4[nH]ccc4c3C)ccc2F)[nH]c1C(O)c1cccc(CCC(=O)O)c1", "note": "(stereo not drawn) [Example 217, 3-(3-((2-(2-Fluoro-5-((6-fluoro-4-methyl-1H-indol-5-yl)oxy)phenyl)-4-methyl-1H-imidazol-5-yl)(hydroxy)methyl)phenyl)propanoic acid]", "DSLS NBD1/3D Human Stability delta-T (° C.) @ 100 (μM)": "B (B: 5-10° C.)"}, {"compound": "Cc1c(Oc2ccc(F)c(-c3ncc(C(C)(O)c4cccc(CCC(=O)O)c4)[nH]3)c2)c(F)cc2[nH]ccc12", "note": "(stereo not drawn) [Example 186, 3-(3-(1-(2-(2-fluoro-5-((6-fluoro-4-methyl-1H-indol-5-yl)oxy)phenyl)-1H-imidazol-5-yl)-1-hydroxyethyl)phenyl) propanoic acid]", "DSLS NBD1/3D Human Stability delta-T (° C.) @ 100 (μM)": "B (B: 5-10° C.)"}]}]}
